Reference: patent US20240208937A1, “Compounds and Their Use for Treatment of Hemoglobinopathies” (Bristol-Myers Squibb Company, priority 2022, published 2024)

How the values were obtained:
Assay type in all cases: cell-based
[1] = test system: fetal hemoglobin (HbF) in GCSF-mobilized human CD34+ cells; assay: HbF Induction Assay; settings: 168 h; compound 1 μM, 7 days, erythroid-differentiated human CD34+ cells, flow cytometry; DMSO baseline 15% HbF positive cells
Experimental: The expansion, differentiation, and maturation of GCSF-mobilized human CD34^+ (STEMCELL Technologies Inc.) cells towards erythroid lineage cells were performed using a two-phase liquid culture model (Moutouh-de Parseval L A, el al. Pomalidomide and lenalidomide regulate erythropoiesis and fetal hemoglobin production in human CD34+ cells. J Clin Invest. 2008 January; 118(1):248-58). In the first phase, GCSF-mobilized human CD34^+ cells were cultured using StemSpan™-XF (STEMCELL Technologies Inc.) media supplemented with 1×BIT 9500, Penicillin-Streptomycin (50 U/mL), 100 ng/mL recombinant human (rh) SCF, 100 ng/mL rh Flt3-L, 20 ng/mL rh IL-3 and 10 ng/mL rh EPO and the growth of cells maintained in exponential phase for 7 days at 37° C. with 5% CO2 to support expansion and progenitor differentiation prior the second phase and treatment with compounds. In the second phase, culture media was changed to StemSpan™-XF media supplemented with 1×BIT 9500, Penicillin-Streptomycin (50 U/mL), 50 ng/mL rh SCF and 40 ng/mL rh EPO to promote further differentiation and maturation of the erythrocytes and to initiate treatment with compounds. Compounds were dispensed in duplicate at a final concentration of 1 μM in a final DMSO amount of 0.1%. Fresh compound was reapplied, and cell density was kept constant every 2 days. After 7 days, the cells were assessed for viability and fetal hemoglobin expression using flow cytometry. For viability analysis, eBioscience™ Fixable Viability Dye eFluor™ 780 (1:1000, eBioscience; Cat #65-0865-14) was added to the cells and kept in the dark for 10 minutes. For analysis of fetal hemoglobin (HbF), cells were fixed and permeabilized using Fixation Buffer (BioLegend; Cat #420801 and Intracellular staining permeabilization buffer (BioLegend, Cat #420201) following manufacturer's instructions. During permeabilization step, cells were stained with PE-labelled Mouse Anti-Human Fetal Hemoglobin (1:10, clone 2D12; BD Biosciences, Cat #BDB560041) incubated at room temperature for 20 minutes and protected from light. PE-labelled Mouse anti-IgG k, (1:10 clone MOPC-21; BD Biosciences, Cat# BDB551436) was used as an isotype control.
Viability, cell count, and fetal hemoglobin (HbF) levels were measured using an Attune NXT flow cytometer (Thermofisher) and the data analyzed using the FCS express software (De Novo Software). In Table 1 below, the effects of compounds of formula (I), formula (I′), formula (II), formula (II′), and formula (III) on % viable cells, viable cell count, on the % HbF positive cells and the median fluorescent intensity (MFI) of the HbF positive cell population compared to the DMSO controls can be viewed. All gates were set using the isotype negative control. The baseline % HbF positive cells for DMSO-treated control cells was 15%. Compounds of formula (I), formula (I′), formula (II), formula (II′), and formula (III) having HbF induction between 66% and 100% are level A. Compounds of formula (I), formula (I′), formula (II), formula (II′), and formula (III) having HbF induction between 33% and 66% are level B. Compounds of formula (I), formula (I′), formula (II), formula (II′), and formula (III) having HbF induction % less than 33% are level C. For certain compounds of formula (I), formula (I′), formula (II), formula (II′), and formula (III) % HbF induction values 0-33% (activity level C), between 33% and 66% (activity level B), and between 67% and 100% (activity level A) are shown in Table 2 below.

[2] = molecular target: WIZ (Widely interspaced zinc finger) (Homo sapiens (Human), UniProt O95785+Q96SW2); assay: HUDEP-2 WIZ HiBiT degradation assay; settings: HUDEP-2 WIZ HiBiT cells, 24 hours treatment, luminescence; for DC50: read-out: WIZ EC50
Sequence of WIZ (Widely interspaced zinc finger) (O95785 whole entry, the tested form may be a part): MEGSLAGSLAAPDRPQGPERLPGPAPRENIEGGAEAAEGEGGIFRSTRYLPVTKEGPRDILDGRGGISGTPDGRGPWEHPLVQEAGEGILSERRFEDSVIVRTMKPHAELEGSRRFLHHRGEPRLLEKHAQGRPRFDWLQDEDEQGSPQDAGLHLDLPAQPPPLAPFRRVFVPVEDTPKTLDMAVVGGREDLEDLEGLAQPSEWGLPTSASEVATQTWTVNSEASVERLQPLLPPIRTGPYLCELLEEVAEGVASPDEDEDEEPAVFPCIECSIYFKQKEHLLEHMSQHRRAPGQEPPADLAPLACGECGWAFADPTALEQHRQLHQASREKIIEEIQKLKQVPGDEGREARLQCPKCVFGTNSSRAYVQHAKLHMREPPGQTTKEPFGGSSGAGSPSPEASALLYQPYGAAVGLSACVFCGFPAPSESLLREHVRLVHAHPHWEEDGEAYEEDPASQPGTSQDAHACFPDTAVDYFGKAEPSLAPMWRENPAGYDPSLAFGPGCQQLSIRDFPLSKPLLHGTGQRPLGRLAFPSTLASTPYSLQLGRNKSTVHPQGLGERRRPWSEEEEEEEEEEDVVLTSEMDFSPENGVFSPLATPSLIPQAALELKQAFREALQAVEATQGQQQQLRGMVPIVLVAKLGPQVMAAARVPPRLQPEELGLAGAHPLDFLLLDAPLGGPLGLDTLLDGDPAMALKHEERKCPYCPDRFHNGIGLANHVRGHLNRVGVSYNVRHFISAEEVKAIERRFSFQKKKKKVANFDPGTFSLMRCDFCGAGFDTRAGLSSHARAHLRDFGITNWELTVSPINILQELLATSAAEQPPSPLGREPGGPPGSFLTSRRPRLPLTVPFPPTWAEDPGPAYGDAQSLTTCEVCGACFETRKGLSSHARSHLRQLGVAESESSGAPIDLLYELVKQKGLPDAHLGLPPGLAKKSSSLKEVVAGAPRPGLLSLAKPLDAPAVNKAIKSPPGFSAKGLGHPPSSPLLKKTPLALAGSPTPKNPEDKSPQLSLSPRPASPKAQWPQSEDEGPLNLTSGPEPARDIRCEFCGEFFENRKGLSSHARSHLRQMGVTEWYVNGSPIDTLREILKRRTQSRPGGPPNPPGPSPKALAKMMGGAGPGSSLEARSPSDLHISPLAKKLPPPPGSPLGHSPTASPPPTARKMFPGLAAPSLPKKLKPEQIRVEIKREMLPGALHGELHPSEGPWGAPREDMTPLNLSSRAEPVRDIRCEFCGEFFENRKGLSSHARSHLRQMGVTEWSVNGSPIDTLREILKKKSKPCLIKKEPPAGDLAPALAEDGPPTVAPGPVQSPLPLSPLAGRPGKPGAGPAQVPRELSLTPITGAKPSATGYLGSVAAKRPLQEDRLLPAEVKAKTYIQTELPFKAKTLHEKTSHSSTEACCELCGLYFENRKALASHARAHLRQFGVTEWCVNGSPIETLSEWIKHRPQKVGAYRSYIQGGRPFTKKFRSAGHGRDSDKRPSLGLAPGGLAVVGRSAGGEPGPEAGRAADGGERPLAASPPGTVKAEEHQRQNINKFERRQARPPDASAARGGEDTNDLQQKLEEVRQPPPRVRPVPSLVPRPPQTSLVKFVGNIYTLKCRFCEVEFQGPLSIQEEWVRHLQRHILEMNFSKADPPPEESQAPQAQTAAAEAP
Sequence of WIZ (Widely interspaced zinc finger) (Q96SW2 whole entry, the tested form may be a part): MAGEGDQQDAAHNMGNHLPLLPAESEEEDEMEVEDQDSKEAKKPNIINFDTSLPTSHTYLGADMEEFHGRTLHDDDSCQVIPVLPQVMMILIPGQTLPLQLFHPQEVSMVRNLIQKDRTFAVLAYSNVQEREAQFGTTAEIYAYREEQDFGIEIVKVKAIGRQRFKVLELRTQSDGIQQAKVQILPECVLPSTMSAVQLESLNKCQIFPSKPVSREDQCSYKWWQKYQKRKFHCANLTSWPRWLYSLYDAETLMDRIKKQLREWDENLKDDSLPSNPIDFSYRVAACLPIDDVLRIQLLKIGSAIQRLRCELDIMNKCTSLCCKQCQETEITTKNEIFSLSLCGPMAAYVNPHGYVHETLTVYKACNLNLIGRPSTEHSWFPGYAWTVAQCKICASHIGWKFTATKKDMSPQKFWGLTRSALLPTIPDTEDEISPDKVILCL
Sequence of WIZ (Widely interspaced zinc finger) (Q16531 whole entry partner, the tested form may be a part): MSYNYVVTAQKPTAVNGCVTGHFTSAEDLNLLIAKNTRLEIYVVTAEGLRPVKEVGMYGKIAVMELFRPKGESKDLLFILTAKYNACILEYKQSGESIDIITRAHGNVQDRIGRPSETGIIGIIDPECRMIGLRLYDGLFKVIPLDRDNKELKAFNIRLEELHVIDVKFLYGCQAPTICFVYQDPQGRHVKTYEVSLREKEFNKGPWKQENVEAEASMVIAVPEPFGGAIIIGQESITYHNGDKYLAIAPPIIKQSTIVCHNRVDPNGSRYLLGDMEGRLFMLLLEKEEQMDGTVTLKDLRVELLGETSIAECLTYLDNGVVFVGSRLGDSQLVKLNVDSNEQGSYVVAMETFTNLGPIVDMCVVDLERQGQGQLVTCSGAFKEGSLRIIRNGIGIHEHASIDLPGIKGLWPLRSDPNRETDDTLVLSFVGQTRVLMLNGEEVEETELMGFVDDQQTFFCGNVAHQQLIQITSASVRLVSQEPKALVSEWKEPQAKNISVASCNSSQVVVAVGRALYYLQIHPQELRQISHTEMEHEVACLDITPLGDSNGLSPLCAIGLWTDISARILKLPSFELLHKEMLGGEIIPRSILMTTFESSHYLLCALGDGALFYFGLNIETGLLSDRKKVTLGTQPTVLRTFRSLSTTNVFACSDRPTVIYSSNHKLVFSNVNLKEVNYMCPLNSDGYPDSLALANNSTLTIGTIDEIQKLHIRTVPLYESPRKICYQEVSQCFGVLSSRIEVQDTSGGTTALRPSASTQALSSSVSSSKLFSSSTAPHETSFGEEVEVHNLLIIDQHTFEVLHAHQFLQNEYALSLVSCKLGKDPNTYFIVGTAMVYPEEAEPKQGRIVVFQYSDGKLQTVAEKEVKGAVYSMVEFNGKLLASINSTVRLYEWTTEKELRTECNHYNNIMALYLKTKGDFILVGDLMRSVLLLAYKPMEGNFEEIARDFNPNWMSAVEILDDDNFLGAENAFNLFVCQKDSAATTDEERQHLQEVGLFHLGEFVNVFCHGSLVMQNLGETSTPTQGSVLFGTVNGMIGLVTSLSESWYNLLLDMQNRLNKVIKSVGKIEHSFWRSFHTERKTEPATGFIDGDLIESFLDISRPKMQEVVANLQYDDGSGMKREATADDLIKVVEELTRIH
Experimental: (§1) The HiBiT degradation assay for WIZ and ZBTB7A in HUDEP-2 cells was performed as described below. HUDEP-2 cells engineered to express a HiBiT tag in either the WIZ (Widely interspaced zinc finger) or ZBTB7A (Zinc Finger And BTB Domain Containing 7A) proteins were maintained in low attachment flasks in StemSpan SFEM II media supplemented with Penicillin-Streptomycin (50 U/mL), rhSCF (50 ng/mL), rhEPO (3 IU/mL), dexamethasone (0.4 μg/mL) and doxycycline (1 μg/mL). Prior to start of the assay, cell count and viability were measured by trypan blue exclusion using the Vi-cell XR cell viability analyzer. For the HUDEP-2 WIZ HiBiT assay, cells were transferred to a 50 mL conical and centrifuged at 500 g for five minutes. Cells were resuspended in fresh StemSpan SFEM II media supplemented with Penicillin-Streptomycin (50 U/mL), rhSCF (50 ng/mL), rhEPO (3 IU/mL), dexamethasone (0.4 μg/mL) and doxycycline (1 μg/mL) at a density of 1.0×10^6 cells/ml. Forty microliters of cell suspension was dispensed into 384-well Low Flange White Flat Bottom Polystyrene TC-treated Microplates containing pre-dispensed compounds, using a VIAFLO 384 liquid hander, and placed in a 37° C. incubator with 5% CO2. […] After 24 hours of treatment, 40 μL Nano-Glo HiBiT Lytic Detection System reagent was dispensed into each well using a VIAFLO 384 liquid hander. Plates were incubated for 25 minutes at room temperature and the luminescence was read as relative luminescent units using the EnVision plate reader. EC50 and Y-min values were calculated using curves calculated from dotmatics software after the normalization to the DMSO control of 10 different concentrations: 10, 3.33, 1.11, 0.37, 0.12, 0.04 0.0137, 0.0046, 0.0015 and 0.0005 μM respectively.

[3] = molecular target: ZBTB7A (Zinc Finger And BTB Domain Containing 7A) (Homo sapiens (Human), UniProt O95365+Q96SW2); assay: HUDEP-2 ZBTB7A HiBiT degradation assay; settings: HUDEP-2 ZBTB7A HiBiT cells, 24 hours treatment, luminescence; for DC50: read-out: ZBTB7A EC50
Sequence of ZBTB7A (Zinc Finger And BTB Domain Containing 7A) (O95365 whole entry, the tested form may be a part): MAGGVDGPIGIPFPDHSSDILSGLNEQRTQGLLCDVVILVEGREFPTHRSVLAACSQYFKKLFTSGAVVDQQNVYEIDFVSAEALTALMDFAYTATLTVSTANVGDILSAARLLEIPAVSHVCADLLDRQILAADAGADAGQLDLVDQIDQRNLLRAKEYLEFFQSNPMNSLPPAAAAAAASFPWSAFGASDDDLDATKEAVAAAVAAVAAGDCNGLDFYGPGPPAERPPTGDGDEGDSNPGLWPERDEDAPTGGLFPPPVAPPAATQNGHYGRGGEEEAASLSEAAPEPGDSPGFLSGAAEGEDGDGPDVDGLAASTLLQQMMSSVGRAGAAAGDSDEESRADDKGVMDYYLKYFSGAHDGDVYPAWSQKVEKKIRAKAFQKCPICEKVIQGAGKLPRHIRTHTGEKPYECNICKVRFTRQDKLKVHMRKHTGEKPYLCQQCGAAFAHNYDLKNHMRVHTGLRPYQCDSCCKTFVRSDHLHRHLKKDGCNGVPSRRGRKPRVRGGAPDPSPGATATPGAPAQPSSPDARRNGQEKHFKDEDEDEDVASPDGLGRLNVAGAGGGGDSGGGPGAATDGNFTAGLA
Sequence of ZBTB7A (Zinc Finger And BTB Domain Containing 7A) (Q96SW2 whole entry, the tested form may be a part): as the sequence (Q96SW2 whole entry, the tested form may be a part) above
Sequence of ZBTB7A (Zinc Finger And BTB Domain Containing 7A) (Q16531 whole entry partner, the tested form may be a part): as the sequence (Q16531 whole entry partner, the tested form may be a part) above
Experimental: as §1
For the HUDEP-2 ZBTB7A HiBiT assay, cell count and viability were measured by trypan blue exclusion using the Vi-cell XR cell viability analyzer and the cells were transferred to a 50 mL conical and centrifuged at 500 g for five minutes. Cells were resuspended in fresh IMDM media supplemented with L-Glutamine (1×), Penicillin-Streptomycin (50 U/mL), holo-transferrin (330 μg/mL), heparin (2 IU/mL), r-human Insulin (10 μg/mL), rhEPO (3 IU/mL), rhSCF (100 ng/mL)+Dox (1 μg/mL) and 5% human plasma in low attachment flasks, which were placed in a 37° C. incubator with 5% CO2. After 48 hours, cell count and viability were measured by trypan blue exclusion using the Vi-cell XR cell viability analyzer. The HUDEP-2 ZBTB7A cells were transferred to a 50 mL conical, centrifuged at 500 g for five minutes and resuspended at a density of 1.0×10^6 cells/ml in IMDM media supplemented with L-Glutamine (1×), Penicillin-Streptomycin (50 U/mL), holo-transferrin (330 μg/mL), heparin (2 IU/mL), r-human Insulin (10 μg/mL), rhEPO (3 IU/mL), rhSCF (100 ng/mL)+Dox (1 μg/mL) and 5% human plasma. Forty microliters of cell suspension was dispensed into 384-well Low Flange White Flat Bottom Polystyrene TC-treated Microplates containing pre-dispensed compounds, using a VIAFLO 384 liquid hander, and placed in a 37° C. incubator with 5% CO2. […] After 24 hours of treatment, 40 μL Nano-Glo HiBiT Lytic Detection System reagent was dispensed into each well using a VIAFLO 384 liquid hander. Plates were incubated for 25 minutes at room temperature and the luminescence was read as relative luminescent units using the EnVision plate reader. EC50 and Y-min values were calculated using curves calculated from dotmatics software after the normalization to the DMSO control of 10 different concentrations: 10, 3.33, 1.11, 0.37, 0.12, 0.04 0.0137, 0.0046, 0.0015 and 0.0005 μM respectively.

Structure (SMILES) | activation at 1 µM [1] | EC50 [2] | DC50 [3] | DC50 [2] | EC50 [3]
COc1cc(OCCN2CCCCC2)ccc1Nc1cccc2c1C(=O)N(C1CCC(=O)NC1=O)C2=O (stereo not shown) [Compound 12, 2-(2,6-dioxopiperidin-3-yl)-4-((2-methoxy-4-(2-(piperidin-1-yl)ethoxy)phenyl)amino)isoindoline-1,3-dione] | 66 to 100% | < 0.01 µM | 0.03 to 0.1 µM | – | –
Cc1cc2c(cc1Nc1cccc3c1C(=O)N(C1CCC(=O)NC1=O)C3=O)N(C)C(=O)CC2 (stereo not shown) [Compound 33, 4-((1,6-dimethyl-2-oxo-1,2,3,4-tetrahydroquinolin-7-yl)amino)-2-(2,6-dioxopiperidin-3-yl)isoindoline-1,3-dione] | – | – | 0.03 to 0.1 µM | 0.01 to 0.1 µM | –
Cc1cc(-c2cc3c(cc2Nc2cccc4c2C(=O)N([C@H]2CCC(=O)NC2=O)C4=O)N(C)C(=O)CC3)cn(C)c1=O [Compound 35, (S)-4-((6-(1,5-dimethyl-6-oxo-1,6-dihydropyridin-3-yl)-1-methyl-2-oxo-1,2,3,4-tetrahydroquinolin-7-yl)amino)-2-(2,6-dioxopiperidin-3-yl)isoindoline-1,3-dione] | – | – | 0.03 to 0.1 µM | 0.01 to 0.1 µM | –
COc1cc(-c2cc3c(cc2Nc2cccc4c2C(=O)N(C2CCC(=O)NC2=O)C4=O)N(C)C(=O)CC3)c(F)cn1 (stereo not shown) [Compound 51, 2-(2,6-dioxopiperidin-3-yl)-4-((6-(5-fluoro-2-methoxypyridin-4-yl)-1-methyl-2-oxo-1,2,3,4-tetrahydroquinolin-7-yl)amino)isoindoline-1,3-dione] | – | – | 0.03 to 0.1 µM | 0.01 to 0.1 µM | –
COc1nccc(-c2cc3c(cc2Nc2cccc4c2C(=O)N(C2CCC(=O)NC2=O)C4=O)N(C)C(=O)CC3)c1F (stereo not shown) [Compound 50, 2-(2,6-dioxopiperidin-3-yl)-4-((6-(3-fluoro-2-methoxypyridin-4-yl)-1-methyl-2-oxo-1,2,3,4-tetrahydroquinolin-7-yl)amino)isoindoline-1,3-dione] | – | – | – | 0.01 to 0.1 µM | < 0.03 µM
COc1cc(-c2cc3c(cc2Nc2cccc4c2C(=O)N([C@H]2CCC(=O)NC2=O)C4=O)N(C)C(=O)CC3)cc(C)n1 [Compound 49, (S)-2-(2,6-dioxopiperidin-3-yl)-4-((6-(2-methoxy-6-methylpyridin-4-yl)-1-methyl-2-oxo-1,2,3,4-tetrahydroquinolin-7-yl)amino)isoindoline-1,3-dione] | – | < 0.01 µM | – | – | < 0.03 µM
CC1(N2C(=O)c3cccc(Nc4cccc(COc5ccccc5)c4)c3C2=O)CCC(=O)NC1=O (stereo not shown) [Compound 54, 2-(3-methyl-2,6-dioxopiperidin-3-yl)-4-((3-(phenoxymethyl)phenyl)amino)isoindoline-1,3-dione] | – | – | – | > 0.1 µM | > 0.1 µM
CN1C(=O)CCc2cc(-c3cnn(C4CC4)c3)c(Nc3cccc4c3C(=O)N([C@H]3CCC(=O)NC3=O)C4=O)cc21 [Compound 37, (S)-4-((6-(1-cyclopropyl-1H-pyrazol-4-yl)-1-methyl-2-oxo-1,2,3,4-tetrahydroquinolin-7-yl)amino)-2-(2,6-dioxopiperidin-3-yl)isoindoline-1,3-dione] | – | < 0.01 µM | – | – | < 0.03 µM
Cc1nn(C)cc1-c1cc2c(cc1Nc1cccc3c1C(=O)N([C@H]1CCC(=O)NC1=O)C3=O)N(C)C(=O)CC2 [Compound 38, (S)-4-((6-(1,3-dimethyl-1H-pyrazol-4-yl)-1-methyl-2-oxo-1,2,3,4-tetrahydroquinolin-7-yl)amino)-2-(2,6-dioxopiperidin-3-yl)isoindoline-1,3-dione] | – | – | – | 0.01 to 0.1 µM | < 0.03 µM
CN1C(=O)CCc2cc(-c3cnn(C)c3)c(Nc3cccc4c3C(=O)N(C3CCC(=O)NC3=O)C4=O)cc21 (stereo not shown) [Compound 36, 2-(2,6-dioxopiperidin-3-yl)-4-((1-methyl-6-(1-methyl-1H-pyrazol-4-yl)-2-oxo-1,2,3,4-tetrahydroquinolin-7-yl)amino)isoindoline-1,3-dione] | – | – | – | 0.01 to 0.1 µM | < 0.03 µM
Cc1cc(-c2cc3c(cc2Nc2cccc4c2C(=O)N([C@]2(C)CCC(=O)NC2=O)C4=O)N(C)C(=O)CC3)ccn1 [Compound 53, (R)-2-(3-methyl-2,6-dioxopiperidin-3-yl)-4-((1-methyl-6-(2-methylpyridin-4-yl)-2-oxo-1,2,3,4-tetrahydroquinolin-7-yl)amino)isoindoline-1,3-dione] | – | – | – | > 0.1 µM | > 0.1 µM
CN1C(=O)CCc2cc(C3CC3)c(Nc3cccc4c3C(=O)N(C3CCC(=O)NC3=O)C4=O)cc21 (stereo not shown) [Compound 34, 4-((6-cyclopropyl-1-methyl-2-oxo-1,2,3,4-tetrahydroquinolin-7-yl)amino)-2-(2,6-dioxopiperidin-3-yl)isoindoline-1,3-dione] | – | – | – | 0.01 to 0.1 µM | < 0.03 µM
